Data: patent US9834542B2, “LXR modulators” (BRISTOL-MYERS SQUIBB COMPANY, priority 2013, dated 2017)

Molecular target: T1, LXRβ (Homo sapiens, UniProt P55055)
T1 construct: Co-transfection expression plasmids, comprising full-length LXRα (pCMX-h LXRα[…] or LXRβ (pCMX-hLXRβ)); expressed in transfected cells; host or cells: CV-1 African Green Monkey Kidney Cells
T1 sequence (P55055 1-460): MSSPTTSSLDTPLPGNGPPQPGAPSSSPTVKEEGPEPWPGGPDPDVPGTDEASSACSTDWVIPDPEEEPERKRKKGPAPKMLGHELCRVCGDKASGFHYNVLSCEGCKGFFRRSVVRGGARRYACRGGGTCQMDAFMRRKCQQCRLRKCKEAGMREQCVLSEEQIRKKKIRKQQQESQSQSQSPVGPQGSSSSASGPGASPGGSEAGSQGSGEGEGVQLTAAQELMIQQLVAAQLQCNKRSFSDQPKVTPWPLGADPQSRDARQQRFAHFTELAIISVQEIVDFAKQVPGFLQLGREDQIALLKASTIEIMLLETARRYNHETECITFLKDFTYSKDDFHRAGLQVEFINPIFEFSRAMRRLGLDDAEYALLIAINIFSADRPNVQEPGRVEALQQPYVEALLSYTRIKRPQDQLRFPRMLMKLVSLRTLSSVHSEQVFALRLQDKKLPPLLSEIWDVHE
T1 sequence (P19793 1-462 partner): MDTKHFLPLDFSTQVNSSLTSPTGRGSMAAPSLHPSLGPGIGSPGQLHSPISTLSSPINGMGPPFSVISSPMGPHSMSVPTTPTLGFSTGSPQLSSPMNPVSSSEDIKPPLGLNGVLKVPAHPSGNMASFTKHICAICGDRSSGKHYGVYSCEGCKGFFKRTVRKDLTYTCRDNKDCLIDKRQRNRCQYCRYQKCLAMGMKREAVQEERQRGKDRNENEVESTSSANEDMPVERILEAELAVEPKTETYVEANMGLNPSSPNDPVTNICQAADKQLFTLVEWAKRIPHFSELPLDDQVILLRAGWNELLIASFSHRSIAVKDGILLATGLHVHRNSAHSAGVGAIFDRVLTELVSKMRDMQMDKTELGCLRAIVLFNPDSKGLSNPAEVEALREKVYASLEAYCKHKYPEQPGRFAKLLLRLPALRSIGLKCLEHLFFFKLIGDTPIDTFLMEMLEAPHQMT
Test: Co-transfection assay (LXRE luciferase reporter), LXRβ
Assay type: cell-based
Settings: for EC50: CV-1 cells transfected with pCMX-hLXRβ and LXREx1-Tk-Luciferase, 20 hours incubation; for Emax: LXRβ co-transfection, relative to high control 1-(2,4-difluorobenzyl)-2-oxo-6-(4-phenoxyphenyl)-4-(trifluoromethyl)-1,2-dihydropyridine-3-carbonitrile, read-out: % Efficacy
How it was run: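 Luciferase output from an LXRE-Tk reporter measured after 20 h, 37 °C compound exposure of transiently transfected CV-1 cells expressing human LXRβ with endogenous RXR. EC50 fitted from 11-point half-log dose responses (mean of ≥2 runs); % efficacy versus maximal response of the reference agonist.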

Compound	EC50	Emax
Cc1nc(C(F)(F)F)cn1-c1ccc(-c2cccc(S(C)(=O)=O)c2)cc1-n1nncc1CC1CCC(C)CC1 (stereo not drawn) [Example 127, 5-[(4-methylcyclohexyl)methyl]-1-{3′-(methylsulfonyl)-4-[2-methyl-4-(trifluoromethyl)-1H-imidazol-1-yl]biphenyl-3-yl}-1H-1,2,3-triazole]	776 nM	55%
Cc1nc(C(F)(F)F)cn1-c1ccc(-c2cccc(S(C)(=O)=O)c2)cc1-n1nncc1Cc1ccccc1Cl [Example 219, 5-(2-chlorobenzyl)-1-(4-(2-methyl-4-(trifluoromethyl)-1H-imidazol-1-yl)-3′-(methylsulfonyl)-[1,1′-biphenyl]-3-yl)-1H-1,2,3-triazole]	1520 nM	44%
Cc1nc(-c2cc(-c3cccc(S(C)(=O)=O)c3)ccc2-n2cc(C(F)(F)F)nc2C)c(-c2ccc(OC(F)F)c(Cl)c2)o1 [Example 398, 5-(3-chloro-4-(difluoromethoxy)phenyl)-2-methyl-4-(4-(2-methyl-4-(trifluoromethyl)-1H-imidazol-1-yl)-3′-(methylsulfonyl)biphenyl-3-yl)oxazole]	55 nM	79%
Cc1nc(-c2cc(-c3cccc(S(C)(=O)=O)c3)ccc2-n2cc(C(F)(F)F)nc2C)c(-c2ccc(Cl)c(F)c2)o1 [Example 498, 5-(4-chloro-3-fluorophenyl)-2-methyl-4-(4-(2-methyl-4-(trifluoromethyl)-1H-imidazol-1-yl)-3′-(methylsulfonyl)biphenyl-3-yl)oxazole]	87 nM	76%
Cc1nc(C(F)(F)F)c(Cl)n1-c1ccc(-c2cccc(S(C)(=O)=O)c2)cc1-c1cnnn1-c1ccc(Cl)cc1 [Example 243, 5-{4-[5-chloro-2-methyl-4-(trifluoromethyl)-1H-imidazol-1-yl]-3′-(methylsulfonyl)biphenyl-3-yl}-1-(4-chlorophenyl)-1H-1,2,3-triazole]	238 nM	107%
Cc1nc(C(F)(F)F)cn1-c1ccc(-c2cccc(S(C)(=O)=O)c2)cc1-n1nncc1-c1ccc(N(C)C)cc1 [Example 22, N,N-dimethyl-4-(1-{3′-(methylsulfonyl)-4-[2-methyl-4-(trifluoromethyl)-1H-imidazol-1-yl]biphenyl-3-yl}-1H-1,2,3-triazol-5-yl)aniline]	113 nM	99%
Cc1nc(C(F)(F)F)cn1-c1ccc(-c2cccc(S(C)(=O)=O)c2)cc1-n1nncc1C(F)(F)c1ccc(Cl)cc1 [Example 12, 5-[(4-chlorophenyl) (difluoro)methyl]-1-{3′-(methylsulfonyl)-4-[2-methyl-4-(trifluoromethyl)-1H-imidazol-1-yl]biphenyl-3-yl}-1H-1,2,3-triazole]	133 nM	62%
COc1ncc(F)cc1-c1oc(C)nc1-c1cc(-c2cc(F)c(CO)c(S(C)(=O)=O)c2)ccc1-n1cc(C(F)(F)F)nc1C [Example 401, (3-fluoro-3′-(5-(5-fluoro-2-methoxypyridin-3-yl)-2-methyloxazol-4-yl)-4′-(2-methyl-4-(trifluoromethyl)-1H-imidazol-1-yl)-5-(methylsulfonyl)biphenyl-4-yl)methanol]	272 nM	60%
Cc1nc(C(F)(F)F)cn1-c1ccc(-c2cc(F)c(CO)c(S(C)(=O)=O)c2)cc1-n1nncc1C(C)c1ccc(Cl)cc1 (stereo not drawn) [Example 109, (3′-{5-[1-(4-chlorophenyl)ethyl]-1H-1,2,3-triazol-1-yl}-3-fluoro-5-(methylsulfonyl)-4′-[2-methyl-4-(trifluoromethyl)-1H-imidazol-1-yl]biphenyl-4-yl)methanol]	111 nM	53%
Cc1nc(C(F)(F)F)cn1-c1ccc(-c2cc(F)c(CO)c(S(C)(=O)=O)c2)cc1-c1nc(C(C)(C)CO)oc1-c1ccc(OC(F)(F)F)cc1 [Example 528, 2-(4-(3′-fluoro-4′-(hydroxymethyl)-4-(2-methyl-4-(trifluoromethyl)-1H-imidazol-1-yl)-5′-(meththsulfonyl)-[1,1′-biphenyl]-3-yl)-5-(4-(trifluoromethoxy)phenyl)oxazol-2-yl)-2-methylpropan-1-ol]	133 nM	20%
Cc1nc(C(F)F)cn1-c1ccc(-c2cccc(S(=O)(=O)N(C)C)c2)cc1-n1nncc1-c1ccc(OC(F)(F)F)cc1 [Example 155, 4′-[4-(difluoromethyl)-2-methyl-1H-imidazol-1-yl]-N,N-dimethyl-3′-(5-{4-[(trifluoromethyl)oxy]phenyl}-1H-1,2,3-triazol-1-yl)biphenyl-3-sulfonamide]	701 nM	93%
Cc1nc(C(F)(F)F)cn1-c1ccc(-c2cccc(S(C)(=O)=O)c2)cc1-c1nc(C(C)C)oc1-c1ccc2c(c1)OC(F)(F)O2 [Example 480, 5-(2,2-difluorobenzo[d][1,3]dioxol-5-yl)-2-isopropyl-4-(4-(2-methyl-4-(trifluoromethyl)-1H-imidazol-1-yl)-3′-(methylsulfonyl)biphenyl-3-yl)oxazole]	63 nM	74%
Cc1nc(C(F)(F)F)cn1-c1ccc(-c2cc(F)c(CO)c(S(C)(=O)=O)c2)cc1-c1oc(CCO)nc1-c1ccc(OC(F)(F)F)cc1 [Example 612, 2-(5-(3′-fluoro-4′-(hydroxymethyl)-4-(2-methyl-4-(trifluoromethyl)-1H-imidazol-1-yl)-5′-(methylsulfonyl)-[1,1′-biphenyl]-3-yl)-4-(4-(trifluoromethoxy)phenyl)oxazol-2-yl)ethanol]	517 nM	64%
Cc1nc(-c2cc(-c3ccc(C)c(S(C)(=O)=O)c3)ccc2-n2cc(C(F)(F)F)nc2C)c(-c2ccc3c(c2)OC(F)(F)O3)o1 [Example 445, 5-(2,2-difluorobenzo[d][1,3]dioxol-5-yl)-2-methyl-4-(4′-methyl-4-(2-methyl-4-(trifluoromethyl)-1H-imidazol-1-yl)-3′-(methylsulfonyl)biphenyl-3-yl)oxazole]	36 nM	69%
Cc1nc(-c2cc(-c3cccc(S(C)(=O)=O)c3)ccc2-n2cc(C(F)(F)F)nc2C)c(-c2cccnc2OC(F)F)o1 [Example 388, 5-(2-(difluoromethoxy)pyridin-3-yl)-2-methyl-4-(4-(2-methyl-4-(trifluoromethyl)-1H-imidazol-1-yl)-3′-(methylsulfonyl)biphenyl-3-yl)oxazole]	1380 nM	32%
Cc1nc(C(F)(F)F)cn1-c1ccc(-c2cccc(S(C)(=O)=O)c2)cc1-n1nncc1-c1ccc(OCC(F)(F)F)cc1 [Example 31, 1-{3′-(methylsulfonyl)-4-[2-methyl-4-(trifluoromethyl)-1H-imidazol-1-yl]biphenyl-3-yl}-5-{4-[(2,2,2-trifluoroethyl)oxy]phenyl}-1H-1,2,3-triazole]	606 nM	90%
Cc1nc(C(F)(F)F)cn1-c1ccc(-c2cccc(S(C)(=O)=O)c2)cc1-n1nncc1-c1ccc(Cl)cc1Cl [Example 76, 5-(2,4-dichlorophenyl)-1-{3′-(methylsulfonyl)-4-[2-methyl-4-(trifluoromethyl)-1H-imidazol-1-yl]biphenyl-3-yl}-1H-1,2,3-triazole]	500 nM	69%
COc1ccc(-c2cnnn2-c2cc(-c3cccc(S(C)(=O)=O)c3)ccc2-n2cc(C(F)(F)F)nc2C)c(C)c1 [Example 24, 5-[2-methyl-4-(methyloxy)phenyl]-1-{3′-(methylsulfonyl)-4-[2-methyl-4-(trifluoromethyl)-1H-imidazol-1-yl]biphenyl-3-yl}-1H-1,2,3-triazole]	512 nM	90%
